Reference: US9730935B2, “Targeting a non-canonical notch signaling pathway for cancer treatment” (The Board of Trustees of the Leland Stanford Junior …, priority 2013, dated 2017)

Columns and labels:
[1] = tested on: Drosophila larval brain NBs (N-induced NB expansion); assay: Pharmacological treatment of N-GOF larvae: ectopic NB formation in larval brain; format: in vivo; settings: Mdivi-1 5 μM in food, 0.5% DMSO vehicle control, larval brains at 120 hr ALH, PntP1>N-V5
Experimental: Pharmacological treatment of larvae. Mdivi-1 (Enzo Life Science) dissolved in 0.5% DMSO was mixed in instant Drosophila media at 5 μM final concentration. 0.5% DMSO alone was used as vehicle control. Embryos were collected on Mdivi-1 containing food or control food for 6 hrs at 25° C. and allowed to develop further to 120 hr ALH before larval brain dissection and immunostaining.
Immunohistochemistry. For larval brain immunostaining, larvae were dissected in Schneider's medium (Invitrogen) and fixed with 4% formaldehyde in PEM buffer (100 mM PIPES at pH 6.9, 1 mM EGTA, 1 mM MgCl2) for 23 min at room temperature. Immunohistochemistry of TH and mito-GFP in Drosophila brain was performed as described (Wu et al., 2013). […] For thoracic muscle mitochondrial morphology analysis, mito-GFP was expressed in thoracic muscle using the Mhc-Gal4 driver and indirect flight muscles were dissected in PBS and examined under fluorescence confocal microscope. […]

HEK 293T cells = assay: Western blot of mitochondrial fraction after CCCP treatment; format: cell-based, human
Experimental: (§1) Co-Immunoprecipitation and Western blot analysis. Approximately 25 adult fly thoraces were collected and homogenized in HBS buffer (210 mM Mannitol, 70 mM Sucrose, 5 mM HEPES pH 7.4, 1 mM EGTA) containing protease inhibitor (Sigma). The lysate was centrifuged at 1,300 g for 10 min, and the supernatant was collected and centrifuged again at 13,000 g for 15 min. For co-IP, the cytosolic and the mitochondrial fractions were incubated with anti-GFP conjugated protein G-agarose beads (Upstate) at 4° C. for 2 hours. Beads were washed 3× with PBS for 5 min each. Proteins were eluted and analyzed by WB as described (Wu et al., 2013). For co-IP assays using human NSC and GBM cells, soluble extracts of isolated mitochondrial fractions were incubated with a mixture of anti-human PINK1 (Abcam) and protein G-agarose beads (Upstate). The primary antibodies used were: pS505-dAKT and AKT (Cell Signaling Technology), Actin (Millipore), NICD (DSHB), NDUFS3 (MitoScience), complex IV subunit I (MitoScience), Drp-1 (L. Pallanck), Calnexin (Novus), PDE1 (MitoScience), Tom20 (Santa Cruz), KDEL (Enzo Life Science), Rab5 (Abcam), Rab7 (Abcam), rat anti-hNotch1 (1:200; DSBH). Rabbit anti-dPINK1 was generated as described (Yang et al., 2006).
(§2) Mitochondria purification. Intact mitochondria from fly heads, fly thoraces and cultured cells were purified at described previously (Wu et al., 2013). […]

Drosophila muscle tissue = assay: as above
Experimental: as §1, §2

| Compound | N-induced NB expansion / ectopic NB formation and brain tumor formation [1] | amount of mitochondrial N (HEK 293T cells) | mitochondrial PINK1 level (HEK 293T cells) | amount of mitochondrial N (Drosophila muscle tissue) | mitochondrial PINK1 level (Drosophila muscle tissue) |
| --- | --- | --- | --- | --- | --- |
| COc1cc(-n2c(=S)[nH]c3ccccc3c2=O)c(Cl)cc1Cl [Mdivi-1] | attenuated |  |  |  |  |
| N#CC(C#N)=NNc1cccc(Cl)c1 [CCCP] |  | not affected | increased | not affected | increased |
